This note sets out measurements from publication PMC7004151, “Synthesis and Structure‐Activity Relationships of N‐(4‐Benzamidino)‐Oxazolidinones: Potent and Selective Inhibitors of Kallikrein‐Related Peptidase 6” (Chemmedchem, 2019).

Broadly, the solubility (thermodynamic) is solubility found after equilibrating the solid with the medium.

The target in one series is KLK4 (Homo sapiens, UniProt Q9Y5K2). Description: KLK4 inhibition (selectivity). The format is biochemical. The settings on record: read-out: KLK4 pIC50 (converted). The source says:
Table 3 Activity of synthesized inhibitors against KLK6 and related proteases. | column: KLK4^a

Series [1] is described as follows: Microsomal intrinsic clearance, mouse liver microsomes. The series is classed as in vitro ADME. The protocol: Immediately, at time zero, then at 3, 6, 9, 15 and 30 min an aliquot (50 μL) of the incubation mixture was removed and mixed with acetonitrile (100 μL) to stop the reaction. Internal standard was added to all samples, the samples centrifuged to sediment precipitated protein and the plates then sealed prior to UPLC‐MS/MS analysis using a Quattro Premier XE (Waters Corporation, USA). XLfit (IDBS, UK) was used to calculate the exponential decay and consequently the rate constant (k) from the ratio of peak area of test compound to internal standard at each timepoint. The rate of intrinsic clearance (CLint) of each test compound was then calculated using the following calculation: CLint (mL/min/g liver)=k×V×Microsomal protein yield. Where V (mL/mg protein) is the incubation volume/mg protein added and microsomal protein yield is taken as 52.5 mg protein/g liver. Verapamil (0.5 μM) was used as a positive control to confirm acceptable assay performance.
(In general: Microsomes from liver hold many membrane-bound enzymes, among them those of drug oxidation.)

A further series concerns the target T1, KLK8 (Homo sapiens, UniProt O60259).
T1 construct: purchased 2B scientific
T1 sequence (O60259 33-260): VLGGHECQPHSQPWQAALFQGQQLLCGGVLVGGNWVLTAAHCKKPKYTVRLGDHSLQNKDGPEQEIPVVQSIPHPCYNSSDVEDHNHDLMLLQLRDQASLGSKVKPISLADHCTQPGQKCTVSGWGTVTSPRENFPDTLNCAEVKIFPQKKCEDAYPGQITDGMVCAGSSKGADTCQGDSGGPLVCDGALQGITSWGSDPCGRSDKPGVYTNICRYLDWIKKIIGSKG
Description: KLK8 enzyme inhibition assay. The format is biochemical. The conditions noted are these: read-out: KLK8 pIC50 (converted). On the procedure:
Enzyme inhibition assays: All chemicals were purchased from Sigma Aldrich (Gillingham, UK) unless otherwise stated. All experiments were conducted in 384 well black, low volume microplates (Greiner 784076) with a final volume of 20 μL and compounds were dispensed into assay plates using an ECHO 550 acoustic dispenser (Labcyte). KLK6 (5 nM) (prepared as in ref. 21) was incubated with test compounds for 30 min at room temperature in assay buffer (50 mM Tris, pH 7.5, 150 mM NaCl, 1 mM EDTA, 0.05 % tween 20, 0.1 % bovine serum albumin (BSA), 1 mM dithiothreitol (DTT)) before the reaction was started by addition of 20 μM Boc‐Phe‐Ser‐Arg‐AMC substrate (Bachem). Fluorescence intensity was read at ex/em 355/460 following incubation for 2 h in the dark at room temperature.
Assays using KLK7 and KLK8 (2B scientific) were conducted in the same manner as for KLK6 with the following exceptions. Both KLK7 and KLK8 required activation before assaying. KLK7 was combined with an equal volume of 20 μg/ml thermolysin (R&D systems) in activation buffer (50 mM Tris, pH 7.5, 10 mM CaCl2, 150 mM NaCl and 0.05 % Brij‐L23) and incubated at 37 °C for 2 h, the reaction was stopped with the addition of 100 mM EDTA in stop solution (50 mM Tris, 150 mM NaCl, pH 8.5). KLK8 was combined with an equal volume of 0.4 mU/mL lysyl endopeptidase (Alpha laboratories) in activation buffer (50 mM Tris, pH 8.0) and incubated at 37 °C for 30 min. Activated KLK7 (40 nM) and KLK8 (25 nM) were assayed with 40 μM Mca‐RPKPVE‐Nval‐WRK(Dnp)‐NH2 fluorogenic MMP substrate (R&D systems) and 25 μM Boc‐V‐P‐R‐AMC substrate (R&D systems), respectively.

The next series has as its target T2, Human thrombin (Homo sapiens, UniProt P00734).
T2 construct: Human thrombin was purchased from Biopur; purchased Biopur
Description: Thrombin enzyme inhibition assay. The series is classed as biochemical. The conditions noted are these: read-out: Thrombin pIC50 (converted). On the procedure: Human thrombin was purchased from Biopur. Human trypsin was purchased from Polymun Scientific. Human Factor Xa was purchased from Enzo Life Sciences. Thrombin (20 nM), trypsin (0.000015 %) or Factor Xa (10 nM) were assayed in a similar manner to the KLKs but were incubated with compound for 20 min at room temperature in assay buffer (50 mM Tris HCl, pH 7.6, 100 mM NaCl, 1 mg/ml CHAPS, 0.05 % bovine serum albumin (BSA), 1 mM dithiothreitol (DTT)) before the addition of 5 μM, 2.5 μM or 1.5 μM Rhodamine 110 substrate (Cambridge bioscience ltd) respectively. Fluorescence intensity was then read at ex/em 485/535 following incubation for 1 h at room temperature (thrombin and factor Xa) or 20 min (trypsin).

A further series in a line: Thermodynamic solubility. The format is physicochemical. The conditions noted are these: thermodynamic from solid, Milli-Q water, 37 °C. The protocol:
Thermodynamic solubility: Test compound (3 mg) is accurately weighed into a Micronics tube. Extra tubes for each control compound, Warfarin (high solubility control) and Cinnarizine (low solubility control) were also accurately weighed. To each tube is added 1 mL of Milli‐Q water. All samples are vortexed for 20 s and placed in a bench top incubator shaker set at 1300 rpm at 37 °C for 5 h. After the incubation, samples are centrifuged at 10,000 rpm for 3 min. 100 μL aliquots of the supernatant in duplicate were placed in a 96‐well plate. All samples, calibration standards and QC samples are analyzed using a validated HPLC method on the Dionex Ultramate 3000 HPLC system. The concentration determined from the supernatant was then reported as the solubility of each compound in μg/mL.

Molecules are shown by their SMILES. ≈ marks a conversion by molar mass, not a printed value. Bounds are passed on as bounds.

Sequence of KLK4 (Q9Y5K2 31-254, species assumed): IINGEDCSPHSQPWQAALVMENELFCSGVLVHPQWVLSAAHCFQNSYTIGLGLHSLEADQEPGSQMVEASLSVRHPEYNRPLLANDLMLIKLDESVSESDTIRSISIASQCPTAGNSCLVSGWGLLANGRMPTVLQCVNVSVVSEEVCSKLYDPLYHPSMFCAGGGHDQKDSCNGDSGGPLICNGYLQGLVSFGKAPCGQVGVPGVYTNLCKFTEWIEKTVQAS

With `CC[C@H](NC(=O)[C@H]1CN(c2ccc(C(=N)N)cc2)C(=O)O1)c1cccc2ccccc12` [Compound 32, (5R)‐3‐(4‐carbamimidoylphenyl)‐N‐((S)‐1‐(naphthalen‐1‐yl)propyl)‐2‐oxooxazolidine‐5‐carboxamide], the IC50 is 158 nM at KLK4, 200 nM on KLK8 and > 20000 nM at Human thrombin. Besides, in series [1], the “Mouse CLint” value stood at 2.4 mL/min/g. This molecule also showed a solubility (thermodynamic) at 5 h in “Thermodynamic solubility” of 2300 µM (≈ 958 µg/mL).
